Reference: US20040028675A1, “Compositions for the treatment of lupus” (Zarlink Semiconductor AB, priority 2001, published 2004)

How the values were obtained:
Kv1.3 channel [1] = target: T1, Kv1.3 channel (Homo sapiens, UniProt P22001); assay: Screening tests of ion channel function; settings: screening tests by experts in ion channel function
[2] = system: patients with Lupus (Systemic Lupus Erythematosus); assay: Treatment of patients with Lupus (SLE) with the inventive composition
Kv1.3 channel [3] = target: T1, Kv1.3 channel; settings: independently demonstrated; cited from earlier work
[4] = system: patients with Lupus (Systemic Lupus Erythematosus); settings: osteoarthritis or Lupus caused joint inflammation; cited from earlier work

T1 sequence (P22001 whole entry): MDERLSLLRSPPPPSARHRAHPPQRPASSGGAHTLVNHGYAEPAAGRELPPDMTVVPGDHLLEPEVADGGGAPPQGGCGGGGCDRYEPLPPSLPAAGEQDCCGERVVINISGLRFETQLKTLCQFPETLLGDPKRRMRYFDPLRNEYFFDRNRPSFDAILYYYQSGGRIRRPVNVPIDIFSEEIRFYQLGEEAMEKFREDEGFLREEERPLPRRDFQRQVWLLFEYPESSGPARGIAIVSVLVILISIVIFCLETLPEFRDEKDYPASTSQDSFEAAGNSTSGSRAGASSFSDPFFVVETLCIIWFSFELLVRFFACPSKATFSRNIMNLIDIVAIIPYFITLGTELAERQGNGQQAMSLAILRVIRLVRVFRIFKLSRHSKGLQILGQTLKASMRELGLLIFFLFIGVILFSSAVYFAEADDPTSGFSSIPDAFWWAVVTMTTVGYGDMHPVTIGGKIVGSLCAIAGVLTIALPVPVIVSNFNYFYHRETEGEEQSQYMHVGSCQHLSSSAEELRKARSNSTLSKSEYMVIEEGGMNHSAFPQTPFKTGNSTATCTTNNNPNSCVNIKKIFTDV

In the case of O=c1cc(-c2ccc(O)c(O)c2)oc2cc(O)cc(O)c12 [Luteolin], the “effectiveness in tests of ion channel function” value (Kv1.3 channel [1]) was “even more effective than Quercetin” and the “effectiveness of the bioflavonoid in the inventive formula (in place of Quercetin)” value ([2]; limited tests) was “somewhat more effective than Quercetin”.

With O=c1c(O)c(-c2cc(O)c(O)c(O)c2)oc2cc(O)cc(O)c12 [Myricetin] the “effectiveness of the bioflavonoid in the inventive formula (in place of Quercetin)” value ([2]; human, in vivo) was “somewhat effective”.

For O=c1c(O)c(-c2ccc(O)c(O)c2)oc2cc(O)cc(O)c12 [Quercetin], the “effectiveness in tests of ion channel function” value (Kv1.3 channel [1]) is listed as “very effective” and the “modulating the conduction by the Kv1.3 potassium channel” value (Kv1.3 channel [3]) is listed as “very effective”.

For Bromelain, the “ameliorating joint pain, Bromelain alone” value [4] is listed as “not effective”.
